According to patent US20040116336A1, “Peptide derivatives” (priority 2002, published 2004):
Read-outs that look alike come from different tables or passages of the source. Starred links: 1 amine or outer side, 2 acyl side, 3 side chain; linkers in the order of their positions; H or OH if unused. Non-standard residues stand in square brackets, D forms with d. Residues, ends and D or L forms follow the SMILES beside them. No end group written: not given here. *: point of attachment. X1 = O=C([C@H](Cc1ccc2ccc3cccc4ccc1c2c34)N[*:1])[*:2]; Phe(4-Cl) = N[C@@H](Cc1ccc(Cl)cc1)C(=O)O; Lys(Me2) = CN(C)CCCC[C@H](N)C(=O)O; Cha = N[C@@H](CC1CCCCC1)C(=O)O; Dap = NC[C@H](N)C(=O)O; Hexanoyl = CCCCCC(=O)*

How the values were obtained:
APJ [1] = target: T1, APJ (Homo sapiens, UniProt P35414); experiment: Receptor binding assay-2 (compound in Reference Example 2 used)
T1 construct: expressed in transfected cells; host or cells: CHO (CHO-A10; clone 6 for the cAMP assay)
T1 sequence (P35414 1-380): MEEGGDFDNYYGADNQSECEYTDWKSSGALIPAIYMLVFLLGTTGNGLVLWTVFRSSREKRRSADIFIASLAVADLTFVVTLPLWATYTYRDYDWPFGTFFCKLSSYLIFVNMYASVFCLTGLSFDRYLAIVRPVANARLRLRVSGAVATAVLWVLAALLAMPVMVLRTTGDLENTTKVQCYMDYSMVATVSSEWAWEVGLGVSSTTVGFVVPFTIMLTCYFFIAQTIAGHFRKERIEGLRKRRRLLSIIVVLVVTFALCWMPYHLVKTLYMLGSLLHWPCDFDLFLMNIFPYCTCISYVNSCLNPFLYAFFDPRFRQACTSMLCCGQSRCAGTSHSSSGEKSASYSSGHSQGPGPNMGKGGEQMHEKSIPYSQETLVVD
Procedure: This product was mixed with an equal volume of an assay buffer (50 mM Tris-HCl/pH 7.5, 5 mM EDTA, 0.5 mM PMSF, 20 μg/ml leupeptin, 0.1 μg/ml pepstatin A, 4 μg/ml E-64 (Peptide Research Laboratory, Co.), 0.1% bovine serum albumin) and stored at −30° C. before use.
CHO-A10 cells were cultured, recovered with PBS containing 5 mM EDTA from a culture vessel, and suspended in the above-mentioned assay buffer not containing bovine serum albumin. The cells were homogenized 3 times at 12,000 rpm for 15 seconds by a Polytron homogenizer (manufactured by Kinematica Inc.) and then centrifuged (1000×g, 4° C., 10 minutes), and the supernatant was recovered. The precipitates were subjected again to the same procedure as above, and the respective supernatants were combined and centrifuged at 100,000×g, 4° C. for 1 hour, to recover precipitates (membrane fraction). The membrane fraction was suspended again in a small amount of the buffer, homogenized with a Teflon homogenizer and stored at −80° C. before use.
Binding assay was carried out under the following conditions. […] Measurement of non-specific binding was carried out using a well containing 1 μM unlabeled compound in place of the test sample. After the incubation was finished, a cell harvester (Packard) adapted to 96 wells and a filter unit (GF/C, Packard) were used for separation thereby capturing the membrane fraction on the filter. After the filter was sufficiently dried, Microcinti 0 (Packard) was added thereto, and using Top Count (Packard), the amount of the labeled material captured together with the membrane fraction on the filter was measured.

APJ [2] = target: T1, APJ; experiment: Inhibitory activity on forskolin-stimulated cAMP production in CHO-A10 clone 6 cells; type: cell-based
Procedure: Measurement of an Inhibitory Activity on Forskolin-Stimulated cAMP Production
Hanks' balanced salt solution (HBSS) containing 0.2 mM 3-isobutyl-1-methylxanthine (IBMX) and 0.05% bovine serum albumin was prepared as an assay buffer, and each well was washed twice with 500 μl assay buffer and pre-incubated at 37° C. for 30 minutes. Further, each well was washed once with 500 μl assay buffer, and a sample dissolved in the assay buffer containing 1 μM forskolin was added at a volume of 500 μl/well and incubated at 37° C. for 30 minutes. Wells incubated with the assay buffer not containing forskolin were prepared in the same manner in order to determine the basal level of cellular cAMP production, while wells incubated with the assay buffer containing forskolin were also prepared in order to determine the maximum level of cAMP production stimulated with forskolin. After incubation was finished, each well was washed once with 500 μl assay buffer, and 500 μl lysis buffer 1B attached to a cAMP EIA system from Amersham was added to each well, to extract cAMP. According to the protocol of the kit, 100 μl of each extract was used to determine the level of cAMP. For the inhibitory activity of the sample on cAMP production, the difference (inhibited cAMP production) between the maximum level and the level of cAMP in the sample-containing wells was determined, and the inhibitory activity was expressed as percentage relative to the increased level of cAMP production stimulated with forskolin (that is, the difference between the maximum level and basal level), and from this dose-reaction curve, the EC50 was determined.

[3] = compound in Reference Example 2 used as ligand, read-out: IC50

| Compound | IC50 (APJ [1]; [3]) | EC50 (APJ [2]; read-out: EC50) | IC50 (APJ [1]) | EC50 (APJ [2]) |
| --- | --- | --- | --- | --- |
| CSCC[C@H](NC(=O)[C@@H]1CCCN1C(=O)CNC(=O)[C@H](CCCCN)NC(=O)[C@H](Cc1c[nH]cn1)NC(=O)[C@H](CO)NC(=O)[C@H](CC(C)C)NC(=O)[C@H](CCCNC(=N)N)NC(=O)[C@@H]1CCCN1C(=O)[C@@H](N)CCCNC(=N)N)C(=O)N[C@@H](Cc1ccc(Cl)cc1)C(=O)O [Compound in Ex. 28] (H-RPRLSHKGPM[Phe(4-Cl)]-OH; N-terminus and C-terminus assumed) | 0.17 nM | 0.16 nM |  |  |
| CSCC[C@H](NC(=O)[C@@H]1CCCN1C(=O)CNC(=O)[C@H](CCCNC(=N)N)NC(=O)[C@H](C)NC(=O)[C@H](CO)NC(=O)[C@H](CC(C)C)NC(=O)[C@H](CCCCN(C)C)NC(=O)[C@@H]1CCCN1C(=O)[C@@H](N)CCCNC(=N)N)C(=O)N1CCC[C@H]1C(=O)N[C@@H](Cc1ccccc1)C(=O)O [Compound in Ex. 63] (H-RP[Lys(Me2)]LSARGPMPF-OH; N-terminus and C-terminus assumed) | 0.074 nM | 0.33 nM |  |  |
| CC(C)C[C@H](NC(=O)[C@H](CCCNC(=N)N)NC(=O)[C@@H]1CCCN1C(=O)[C@@H](N)CCCNC(=N)N)C(=O)N[C@@H](CO)C(=O)N[C@@H](C)C(=O)N[C@@H](CCCNC(=N)N)C(=O)NCC(=O)N1CCC[C@H]1C(=O)N[C@@H](CC1CCCCC1)C(=O)N[C@@H](Cc1ccc2ccc3cccc4ccc1c2c34)C(=O)O [Compound in Ex. 60] (H-RPRLSARGP[Cha][X1]-OH) |  |  | 0.8 nM | 1.1 nM |
| CSCC[C@H](NC(=O)[C@@H]1CCCN1C(=O)CNC(=O)[C@H](CCCNC(=N)N)NC(=O)[C@H](C)NC(=O)[C@H](CO)NC(=O)[C@H](CC(C)C)NC(=O)[C@H](CCCNC(=N)N)NC(=O)[C@@H]1CCCN1C(=O)[C@H](CCCNC(=N)N)NC(=O)[C@H](CCC(N)=O)NC(=O)[C@H](CCCNC(=N)N)NC(=O)[C@@H](N)CCCNC(=N)N)C(=O)N1CCC[C@H]1C(=O)N[C@@H](Cc1ccc(Cl)cc1)C(N)=O [Compound in Ex. 59] | 0.18 nM | 0.32 nM |  |  |
| CSCC[C@H](NC(=O)[C@@H]1CCCN1C(=O)CNC(=O)[C@H](CCCCN)NC(=O)[C@H](Cc1c[nH]cn1)NC(=O)[C@H](CO)NC(=O)[C@H](CC(C)C)NC(=O)[C@H](CCCNC(=N)N)NC(=O)[C@@H]1CCCN1C(=O)[C@@H](N)CCCNC(=N)N)C(=O)N1CCC[C@H]1C(=O)N[C@@H](Cc1ccc2ccccc2c1)C(=O)O [Compound in Ex. 32] | 0.35 nM | 0.1 nM |  |  |
| RPRLFARGPMF [Compound in Ex. 47] | 1.8 nM | 0.36 nM |  |  |
| RPRLFARGPMPF [Compound in Ex. 31] | 0.27 nM | 0.14 nM |  |  |
| CCCCCC(=O)NC[C@H](NC(=O)[C@H](CO)NC(=O)[C@H](CC(C)C)NC(=O)[C@H](CCCNC(=N)N)NC(=O)[C@@H]1CCCN1C(=O)[C@@H](N)CCCNC(=N)N)C(=O)N[C@@H](CCCNC(=N)N)C(=O)NCC(=O)N1CCC[C@H]1C(=O)N[C@@H](CC1CCCCC1)C(=O)N1CCC[C@H]1C(=O)N[C@@H](Cc1ccc(Cl)cc1)C(=O)O [Compound in Ex. 67, Arg-Pro-Arg-Leu-Ser-Dap(C6)-Arg-Gly-Pro-Cha-Pro-Phe(Cl)] (H-RPRLS[Dap](Hexanoyl)RGP[Cha]P[Phe(4-Cl)]-OH; N-terminus and C-terminus assumed) | 0.45 nM | 1.1 nM |  |  |
| CC(C)C[C@H](NC(=O)[C@H](CCCNC(=N)N)NC(=O)[C@@H]1CCCN1C(=O)[C@@H](N)CCCNC(=N)N)C(=O)N[C@@H](CO)C(=O)N[C@@H](Cc1c[nH]cn1)C(=O)N[C@@H](C)C(=O)NCC(=O)N1CCC[C@H]1C(=O)N[C@@H](CC1CCCCC1)C(=O)N1CCC[C@H]1C(=O)N[C@@H](Cc1ccc(Cl)cc1)C(=O)O [Compound in Ex. 56] (H-RPRLSHAGP[Cha]P[Phe(4-Cl)]-OH; N-terminus and C-terminus assumed) | 0.22 nM | 0.58 nM |  |  |
| CC(C)C[C@H](NC(=O)[C@H](CCCNC(=N)N)NC(=O)[C@@H]1CCCN1C(=O)[C@H](CCCNC(=N)N)NC(=O)[C@H](CCC(N)=O)NC(=O)[C@H](CCCNC(=N)N)NC(=O)[C@@H](N)CCCNC(=N)N)C(=O)N[C@@H](CO)C(=O)N[C@@H](C)C(=O)N[C@@H](CCCNC(=N)N)C(=O)NCC(=O)NCC(=O)N[C@@H](CC1CCCCC1)C(=O)O [Compound in Ex. 62] (H-RRQRPRLSARGG[Cha]-OH; N-terminus and C-terminus assumed) | 0.14 nM | 0.23 nM |  |  |
| CC(C)C[C@H](NC(=O)[C@H](CCCNC(=N)N)NC(=O)[C@@H]1CCCN1C(=O)[C@@H](N)CCCNC(=N)N)C(=O)N[C@@H](CO)C(=O)N[C@@H](C)C(=O)N[C@@H](CCCNC(=N)N)C(=O)NCC(=O)N1CCC[C@H]1C(=O)N[C@@H](C)C(=O)N1CCC[C@H]1C(=O)N[C@@H](Cc1ccc(Cl)cc1)C(=O)O [Compound in Ex. 53] (H-RPRLSARGPAP[Phe(4-Cl)]-OH; N-terminus and C-terminus assumed) | 0.064 nM | 0.37 nM |  |  |
| CSCC[C@H](NC(=O)CNC(=O)CNC(=O)[C@H](CCCNC(=N)N)NC(=O)[C@H](C)NC(=O)[C@H](CO)NC(=O)[C@H](CC(C)C)NC(=O)[C@H](CCCNC(=N)N)NC(=O)[C@@H]1CCCN1C(=O)[C@@H](N)CCCNC(=N)N)C(=O)N1CCC[C@H]1C(=O)N[C@@H](Cc1ccc(Cl)cc1)C(=O)O [Compound in Ex. 54] (H-RPRLSARGGMP[Phe(4-Cl)]-OH; N-terminus and C-terminus assumed) | 0.29 nM | 0.19 nM |  |  |
| CC(C)C[C@H](NC(=O)[C@H](CCCNC(=N)N)NC(=O)[C@@H]1CCCN1C(=O)[C@@H](N)CCCNC(=N)N)C(=O)N[C@@H](Cc1ccccc1)C(=O)N[C@@H](Cc1c[nH]cn1)C(=O)N[C@@H](CCCCN)C(=O)NCC(=O)N1CCC[C@H]1C(=O)N[C@@H](CC1CCCCC1)C(=O)N[C@@H](Cc1ccc(Cl)cc1)C(=O)O [Compound in Ex. 37] (H-RPRLFHKGP[Cha][Phe(4-Cl)]-OH; N-terminus and C-terminus assumed) | 0.54 nM | 0.43 nM |  |  |
| CSCC[C@H](NC(=O)[C@@H]1CCCN1C(=O)CNC(=O)[C@H](CCCCN)NC(=O)[C@H](Cc1c[nH]cn1)NC(=O)[C@H](CO)NC(=O)[C@H](CC(C)C)NC(=O)[C@H](CCCNC(=N)N)NC(=O)[C@@H]1CCCN1C(=O)[C@H](CCCNC(=N)N)NC(=O)[C@H](Cc1ccccc1)NC(=O)[C@H](CCCNC(=N)N)NC(=O)[C@@H](N)CCCNC(=N)N)C(=O)N1CCC[C@H]1C(=O)N[C@@H](Cc1ccccc1)C(=O)O [Compound in Ex. 33] | 0.37 nM | 1.1 nM |  |  |
| CC(=O)NC[C@H](NC(=O)[C@H](CO)NC(=O)[C@H](CC(C)C)NC(=O)[C@H](CCCNC(=N)N)NC(=O)[C@@H]1CCCN1C(=O)[C@@H](N)CCCNC(=N)N)C(=O)N[C@@H](CCCNC(=N)N)C(=O)NCC(=O)N1CCC[C@H]1C(=O)N[C@@H](CC1CCCCC1)C(=O)N1CCC[C@H]1C(=O)N[C@@H](Cc1ccc(Cl)cc1)C(=O)O [Compound in Ex. 66, Arg-Pro-Arg-Leu-Ser-Dap(Ac)-Arg-Gly-Pro-Cha-Pro-Phe(Cl)] (H-RPRLS[Dap](Ac)RGP[Cha]P[Phe(4-Cl)]-OH) | 0.11 nM | 0.69 nM |  |  |
